Measured values from patent US11186807B2, “Reducing acetate ester production in yeast” (VIB VZW, priority 2017, dated 2021).

Tested on: respiration in yeast (S288c and Hybrid A)
Experiment: Acetate ester production in mini-scale yeast fermentation with or without Antimycin A
Assay type: cell-based, Saccharomyces cerevisiae
Details: 3 mg/L Antimycin A in medium; genetic backgrounds S288c and Hybrid A; FIG. 7B
Excerpt: One of the main functions of the IMP complex is processing of subunits of the respiration chain. Given the surprising finding that genetic inference with the IMP complex reduces the production of acetate esters (see Example 5 and 8), we wondered whether respiration in general modulates acetate ester production. First, yeasts strains were developed in which five genes known to be crucial for respiration (i.e. CBS1, COR1, COX9, QCR9 and COX12) were separately deleted and subsequently were used in a fermentation experiment to determine aroma production. All selected genes function independently from the IMP complex. […] More precisely, an experiment was performed in which acetate ester production of a yeast strain was measured in medium with or without supplementation of 3 mg/L Antimycin A, a chemical compound blocking the respiratory pathway (Kim et al 1999 J Am Chem Soc 121:4902). […]
Phenotyping of the individual segregants for IA production was performed using an in situ approach, and was conducted as follows: the segregants were streaked from the −80° C. stock on YPGlu 2% agar plates for 48 h at 30° C. […] After 96 h, the fermentation was ended, excess CO2 was once again released by brief opening of the vials, and the vials were measured using gas chromatography (see further). […]

**Q.** Which “drop of isoamyl acetate production” value does the source give for Antimycin A here?
**A.** The value was “about 50%”.
